Reference: patent US20250171417A1, “HETEROCYCLIC DERIVATIVE, AND COMPOSITION AND PHARMACEUTICAL USE THEREOF” (Xizang Haisco Pharmaceutical Co., Ltd., priority 2021, published 2025)
Read-outs that look alike come from different tables or passages of the source.

Experiments:
[1] = test system: Prostate cancer cells 22RV1; assay: Experiment on inhibiting 22RV1 cell proliferation (CellTiter-Glo, 7 days); format: cell-based; details: Homo sapiens, 168 h, 22RV1 cells, 7 days incubation, read-out: IC50 values for inhibition of 22RVI cells
In short: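 22RV1 cells at 2000/well in 1% charcoal-stripped-FBS phenol red-free medium, treated next day with compound for 7 days at 37 °C, 5% CO2. Viability by CellTiter-Glo luminescence; inhibition relative to DMSO vehicle, IC50 from dose-response fit.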

[2] = Pharmacokinetic test in rats; format: in vivo; details: rat, plasma, po, male SD rats; for bioavailability: i.g. 5 mg/kg vs intravenous 2 mg/kg; for AUC(0-t): i.g. 5 mg/kg
Experimental: Test objective: In this experiment, a single dose of each test compound was administered to SD rats intravenously and intragastrically, and the concentrations of the test compounds in plasma of rats were measured to evaluate the pharmacokinetic characteristics of the test compounds in rats.
Experimental animals: male SD rats, 200-250 g, 6-8 weeks old, 6 rats/compound, purchased from Chengdu Ddossy Experimental Animals Co., Ltd.
Experimental method: on the day of the test, 6 SD rats were randomly grouped according to their body weight; the animals were fasted with water available for 12 to 14 hours one day before the administration of a test compound, and were fed 4 hours after the administration.
Sampling: Before and after the administration, 0.1 mL of blood samples were drawn from the orbits of the animals under isoflurane anesthesia, and placed in an EDTAK2 centrifuge tube. Centrifugation was carried out at 5000 rpm at 4° C. for 10 min, and the plasma was collected.
Time points for plasma collection in IV&PO group: 0, 5 min, 15 min, 30 min, 1 h, 2 h, 4 h, 6 h, 8 h, and 24 h.
Before analysis and detection, all samples were stored at −60° C. The samples were analyzed quantitatively by LC-MS/MS.

[3] = cells without a unit of their own (μM)
[4] = cells with nM printed beside the value

Structure (SMILES) | IC50 [1, 3] [µM] | bioavailability [2] [%] | AUC(0-t) [2] [ng·h/mL] | IC50 [1, 4] [µM]
CC(C)(C(=O)Nc1ccc(C#N)c(C(F)(F)F)c1)n1cc(C#CC2CN(c3ccc4c(c3)CN(C3CCC(=O)NC3=O)C4=O)C2)cn1 (stereo not drawn) [Compound 6] | < 1 | 47.3 ± 16 | 8960 ± 2940 | –
CC(C)(C(=O)Nc1ccc(C#N)c(Cl)c1)n1cc(C#CC2CN(c3ccc4c(c3)C(=O)N(C3CCC(=O)NC3=O)C4=O)C2)cn1 (stereo not drawn) [Compound 12, N-(3-chloro-4-cyanophenyl)-2-(4-((1-(2-(2,6-dioxopiperidin-3-yl)-1,3-dioxoisoindolin-5-yl)azetidin-3-yl)ethynyl)-1H-pyrazol-1-yl)-2-methylpropanamide] | – | 73 ± 7.2 | 70500 ± 6980 | < 0.05
O=C1CCC(N2C(=O)c3cc(F)c(N4CC(C#Cc5cnn(C6(C(=O)Nc7ccc(C(F)(F)F)cc7Cl)CCC6)c5)C4)cc3C2=O)C(=O)N1 (stereo not drawn) [Compound 33] | < 1 | 55.3 ± 5.4 | 9390 ± 916 | –
N#Cc1ccc(NC(=O)Cn2cc(C#CC3CN(c4ccc5c(c4)C(=O)N(C4CCC(=O)NC4=O)C5=O)C3)cn2)cc1C(F)(F)F (stereo not drawn) [Compound 47, N-(4-cyano-3-(trifluoromethyl)phenyl)-2-(4-((1-(2-(2,6-dioxopiperidin-3-yl)-1,3-dioxoisoindolin-S-yl)azetidin-3-yl)ethynyl)-1H-pyrazol-1-yl) acetamide] | – | 37.7 ± 13 | 11300 ± 3880 | < 0.05
CC(C)(C(=O)Nc1ccc(C(F)(F)F)cc1-n1cccc1)n1cc(C#CC2CN(c3ccc4c(c3)C(=O)N(C3CCC(=O)NC3=O)C4=O)C2)cn1 (stereo not drawn) [Compound 133, N-(2-(1H-pyrrol-1-yl)-4-(trifluoromethyl)phenyl)-2-(4-((1-(2-(2,6-dioxopiperidin-3-yl)-1,3-dioxoisoindolin-5-yl)azetidin-3-yl)ethynyl)-1H-pyrazol-1-yl)-2-methylpropanamide] | – | 70.3 ± 7.9 | 8290 ± 935 | < 0.1
CC(C)(C(=O)Nc1ccc(C(F)(F)F)cc1C=C(F)F)n1cc(C#CC2CN(c3ccc4c(c3)C(=O)N(C3CCC(=O)NC3=O)C4=O)C2)cn1 (stereo not drawn) [Compound 190, N-(2-(2,2-difluorovinyl)-4-(trifluoromethyl)phenyl)-2-(4-((1-(2-(2,6-dioxopiperidin-3-yl)-1,3-dioxoisoindolin-5-yl)azetidin-3-yl)ethynyl)-1H-pyrazol-1-yl)-2-methylpropanamide] | – | – | – | < 0.1
CC#Cc1cc(C(F)(F)F)ccc1NC(=O)C(C)(C)n1nc(C)c(C#CC2CN(c3ccc4c(c3)C(=O)N(C3CCC(=O)NC3=O)C4=O)C2)c1C (stereo not drawn) [Compound 192, 2-(4-((1-(2-(2,6-dioxopiperidin-3-yl)-1,3-dioxoisoindolin-5-yl)azetidin-3-yl)ethynyl)-3,5-dimethyl-1H-pyrazol-1-yl)-2-methyl-N-(2-(prop-1-yn-1-yl)-4-(trifluoromethyl)phenyl) propanamide] | – | – | – | < 0.1
O=C1CCC(N2C(=O)c3ccc(N4CC(N5Cc6cn(C7(C(=O)Nc8ccc(C(F)(F)F)cc8Cl)CCC7)nc6C5)C4)cc3C2=O)C(=O)N1 (stereo not drawn) [Compound 197, N-(2-chloro-4-(trifluoromethyl)phenyl)-1-(5-(1-(2-(2,6-dioxopiperidin-3-yl)-1,3-dioxoisoindolin-5-yl)azetidin-3-yl)-5,6-dihydropyrrolo[3,4-c]pyrazol-2 (4H)-yl)cyclobutane-1-carboxamide] | < 1 | – | – | –
O=C1CCC(N2C(=O)c3ccc(N4CC(C#Cc5cn(C6(C(=O)Nc7ccc(C(F)(F)F)cc7Cl)CCC6)cn5)C4)cc3C2=O)C(=O)N1 (stereo not drawn) [Trifluoroacetate of compound 139, N-(2-chloro-4-(trifluoromethyl)phenyl)-1-(4-((1-(2-(2,6-dioxopiperidin-3-yl)-1,3-dioxoisoindolin-5-yl)azetidin-3-yl)ethynyl)-1H-imidazol-1-yl)cyclobutane-1-carboxamide] | < 1 | – | – | –

Now from value to compound:

IC50 [1, 3] [µM] | bioavailability [2] [%] | AUC(0-t) [2] [ng·h/mL] | IC50 [1, 4] [µM] | Structure (SMILES)
< 1 | 77.8 ± 8.5 | 57800 ± 6300 | – | Cc1cc(NC(=O)C(C)(C)n2cc(C#CC3CN(c4ccc5c(c4)C(=O)N(C4CCC(=O)NC4=O)C5=O)C3)cn2)ccc1C#N (stereo not drawn) [Compound 13, N-(4-cyano-3-methylphenyl)-2-(4-((1-(2-(2,6-dioxopiperidin-3-yl)-1,3-dioxoisoindolin-5-yl)azetidin-3-yl)ethynyl)-1H-pyrazol-1-yl)-2-methylpropanamide]
– | 62 ± 23 | 16000 ± 5820 | < 0.05 | CC(C)(C(=O)Nc1ccc(C#N)cc1Cl)n1cc(C#CC2CN(c3ccc4c(c3)C(=O)N(C3CCC(=O)NC3=O)C4=O)C2)cn1 (stereo not drawn) [Compound 20, N-(2-chloro-4-cyanophenyl)-2-(4-((1-(2-(2,6-dioxopiperidin-3-yl)-1,3-dioxoisoindolin-5-yl)azetidin-3-yl)ethynyl)-1H-pyrazol-1-yl)-2-methylpropanamide]
– | – | 39700 ± 1890 | < 0.1 | CC(C)(C(=O)Nc1ccc(C(F)(F)F)cc1F)n1cc(C#CC2CN(c3ccc4c(c3)C(=O)N(C3CCC(=O)NC3=O)C4=O)C2)cn1 (stereo not drawn) [Compound 31, N-(2-fluoro-4-(trifluoromethyl)phenyl)-2-(4-((1-(2-(2,6-dioxopiperidin-3-yl)-1,3-dioxoisoindolin-5-yl)azetidin-3-yl)ethynyl)-1H-pyrazol-1-yl)-2-methylpropanamide]
– | 69.8 ± 28 | 55800 ± 22600 | < 0.05 | CC(C)(C(=O)Nc1ccc(C#N)c(Br)c1)n1cc(C#CC2CN(c3ccc4c(c3)C(=O)N(C3CCC(=O)NC3=O)C4=O)C2)cn1 (stereo not drawn) [Compound 37, N-(3-bromo-4-cyanophenyl)-2-(4-((1-(2-(2,6-dioxopiperidin-3-yl)-1,3-dioxoisoindolin-5-yl)azetidin-3-yl)ethynyl)-1H-pyrazol-1-yl)-2-methylpropanamide]
– | 43.5 ± 7.3 | 7200 ± 1210 | < 0.05 | CC(C)(C(=O)Nc1ccc(C#N)c(N2CCCC2)c1)n1cc(C#CC2CN(c3ccc4c(c3)C(=O)N(C3CCC(=O)NC3=O)C4=O)C2)cn1 (stereo not drawn) [Compound 38, N-(4-cyano-3-(pyrrolidin-1-yl)phenyl)-2-(4-((1-(2-(2,6-dioxopiperidin-3-yl)-1,3-dioxoisoindolin-5-yl)azetidin-3-yl)ethynyl)-1H-pyrazol-1-yl)-2-methylpropanamide]
– | – | – | < 0.1 | [2H]C([2H])([2H])C(C(=O)Nc1ccc(C(F)(F)F)cc1C1CC1)(n1cc(C#CC2CN(c3ccc4c(c3)C(=O)N(C3CCC(=O)NC3=O)C4=O)C2)cn1)C([2H])([2H])[2H] (stereo not drawn) [Compound 187, N-(2-cyclopropyl-4-(trifluoromethyl)phenyl)-2-(4-((1-(2-(2,6-dioxopiperidin-3-yl)-1,3-dioxoisoindolin-5-yl)azetidin-3-yl)ethynyl)-1H-pyrazol-1-yl)-2,2-(dimethyl-d6) acetamide]
– | – | – | < 0.1 | C#Cc1cc(C#N)ccc1NC(=O)C(C)(C)n1cc(C#CC2CN(c3ccc4c(c3)C(=O)N(C3CCC(=O)NC3=O)C4=O)C2)cn1 (stereo not drawn) [Compound 189, N-(4-cyano-2-ethynylphenyl)-2-(4-((1-(2-(2,6-dioxopiperidin-3-yl)-1,3-dioxoisoindolin-5-yl)azetidin-3-yl)ethynyl)-1H-pyrazol-1-yl)-2-methylpropanamide]
– | – | – | < 0.1 | CC#Cc1cc(C(F)(F)F)ccc1NC(=O)C(C)(C)n1cc(C#CC2CN(c3ccc4c(c3)C(=O)N(C3CCC(=O)NC3=O)C4=O)C2)c(C)n1 (stereo not drawn) [Compound 193, 2-(4-((1-(2-(2,6-dioxopiperidin-3-yl)-1,3-dioxoisoindolin-5-yl)azetidin-3-yl)ethynyl)-3-methyl-1H-pyrazol-1-yl)-2-methyl-N-(2-(prop-1-yn-1-yl)-4-(trifluoromethyl)phenyl) propanamide]
– | – | – | < 0.1 | CC#Cc1cc(C(F)(F)F)ccc1NC(=O)C(C)(C)n1ncc(C#CC2CN(c3ccc4c(c3)C(=O)N(C3CCC(=O)NC3=O)C4=O)C2)c1C (stereo not drawn) [Compound 194, 2-(4-((1-(2-(2,6-dioxopiperidin-3-yl)-1,3-dioxoisoindolin-5-yl)azetidin-3-yl)ethynyl)-5-methyl-1H-pyrazol-1-yl)-2-methyl-N-(2-(prop-1-yn-1-yl)-4-(trifluoromethyl)phenyl) propanamide]
– | – | – | < 0.1 | CC(C)(C(=O)Nc1ccc(C#N)cc1C1CC1)n1cc(C#CC2CN(c3ccc4c(c3)C(=O)N(C3CCC(=O)NC3=O)C4=O)C2)c(C#N)n1 (stereo not drawn) [Compound 201, N-(4-cyano-2-cyclopropylphenyl)-2-(3-cyano-4-((1-(2-(2,6-dioxopiperidin-3-yl)-1,3-dioxoisoindolin-5-yl)azetidin-3-yl)ethynyl)-1H-pyrazol-1-yl)-2-methylpropanamide]
– | – | – | < 0.1 | CC#Cc1cc(C(F)(F)F)ccc1NC(=O)C(C)(C)n1cc(C#CC2CN(c3ccc4c(c3)C(=O)N(C3CCC(=O)NC3=O)C4=O)C2)c(C#N)n1 (stereo not drawn) [Compound 202, 2-(3-cyano-4-((1-(2-(2,6-dioxopiperidin-3-yl)-1,3-dioxoisoindolin-5-yl)azetidin-3-yl)ethynyl)-1H-pyrazol-1-yl)-2-methyl-N-(2-(prop-1-yn-1-yl)-4-(trifluoromethyl)phenyl) propanamide]
